Laboratory results as given in paper PMC7866395, “A Pipeline towards the Biochemical Characterization of the Arabidopsis GT14 Family” (International Journal of Molecular Sciences, 2021).

How the values were obtained:
Format in all cases: biochemical
[1] = target: T1, AT3G15350 (245, AtGlcAT14E) (Arabidopsis thaliana, UniProt Q9LE60); assay: glucuronosyltransferase assay, RP-HPLC fluorescence and LC-ESI-MS of products; conditions: donor 0.4 mM; acceptor 5 uM β-1,3-Gal5-AA; 25 °C, 2 h; microsomes
T1 construct: full-length CDS, C-terminal YFP and HA tags (pEarleyGate 101), transient expression in Nicotiana benthamiana, Triton X-100 treated microsomal membranes, about 75 kDa fusion
T1 sequence (Q9LE60 1-424): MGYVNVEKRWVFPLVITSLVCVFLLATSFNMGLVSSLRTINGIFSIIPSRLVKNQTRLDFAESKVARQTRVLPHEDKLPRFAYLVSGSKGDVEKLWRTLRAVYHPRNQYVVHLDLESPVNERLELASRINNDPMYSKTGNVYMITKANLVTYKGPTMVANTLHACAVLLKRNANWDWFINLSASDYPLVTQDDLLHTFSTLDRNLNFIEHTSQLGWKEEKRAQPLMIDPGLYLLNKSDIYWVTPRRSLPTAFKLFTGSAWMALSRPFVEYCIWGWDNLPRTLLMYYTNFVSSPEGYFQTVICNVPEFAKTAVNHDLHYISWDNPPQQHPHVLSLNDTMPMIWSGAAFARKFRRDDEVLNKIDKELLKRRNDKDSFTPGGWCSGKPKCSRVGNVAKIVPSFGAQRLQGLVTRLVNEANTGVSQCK

[2] = target: T2, AT5G15050 (249, AtGlcAT14B) (Arabidopsis thaliana, UniProt Q9LFQ0); assay: glucuronosyltransferase assay, RP-HPLC with fluorescence detection; conditions: donor 0.4 mM; acceptor 5 uM β-Gal-NBD, β-1,6-Gal4-AA or β-1,3-Gal5-AA; 25 °C, 2 h; microsomes
T2 construct: gene GLCAT14B; full-length CDS, C-terminal YFP and HA tags (pEarleyGate 101), transient expression in Nicotiana benthamiana, Triton X-100 treated microsomal membranes, about 75 kDa fusion
T2 sequence (Q9LFQ0 1-434): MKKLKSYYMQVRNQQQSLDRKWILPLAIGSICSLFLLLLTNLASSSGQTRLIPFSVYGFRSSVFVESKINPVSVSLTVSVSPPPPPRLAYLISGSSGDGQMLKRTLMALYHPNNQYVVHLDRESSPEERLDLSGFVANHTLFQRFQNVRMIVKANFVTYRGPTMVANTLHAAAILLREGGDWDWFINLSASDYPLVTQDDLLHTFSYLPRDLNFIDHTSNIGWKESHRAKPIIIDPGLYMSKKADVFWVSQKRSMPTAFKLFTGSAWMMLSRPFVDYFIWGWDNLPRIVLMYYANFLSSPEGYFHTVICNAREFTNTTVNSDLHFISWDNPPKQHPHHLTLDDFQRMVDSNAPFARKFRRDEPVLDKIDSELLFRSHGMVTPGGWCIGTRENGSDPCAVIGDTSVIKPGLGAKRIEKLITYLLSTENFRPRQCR

AT4G27480 (248) = target: T3, AT4G27480 (248) (Arabidopsis thaliana, UniProt F4JIW2); assay: as above; conditions: donor 0.4 mM; acceptor 5 uM β-Gal-NBD, β-1,6-Gal4-AA or β-1,3-Gal5-AA; 25 °C, 2 h; microsomes
T3 construct: full-length CDS, C-terminal YFP and HA tags (pEarleyGate 101), transient expression in Nicotiana benthamiana, Triton X-100 treated microsomal membranes, about 75 kDa fusion
T3 sequence (F4JIW2 1-421): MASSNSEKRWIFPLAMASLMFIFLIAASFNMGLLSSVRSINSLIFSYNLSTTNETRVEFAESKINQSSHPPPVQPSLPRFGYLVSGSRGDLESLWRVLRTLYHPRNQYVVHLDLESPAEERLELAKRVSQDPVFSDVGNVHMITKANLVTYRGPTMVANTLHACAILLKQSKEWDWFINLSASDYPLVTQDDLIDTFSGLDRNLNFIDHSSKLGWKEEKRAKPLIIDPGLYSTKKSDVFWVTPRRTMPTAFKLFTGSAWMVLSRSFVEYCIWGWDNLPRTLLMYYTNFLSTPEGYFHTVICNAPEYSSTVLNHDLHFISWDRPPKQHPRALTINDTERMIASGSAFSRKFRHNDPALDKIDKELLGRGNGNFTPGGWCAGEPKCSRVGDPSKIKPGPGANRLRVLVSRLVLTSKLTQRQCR

## O=C(O)[C@H]1O[C@H](OP(=O)(O)OP(=O)(O)OC[C@H]2O[C@@H](n3ccc(=O)[nH]c3=O)[C@H](O)[C@@H]2O)[C@H](O)[C@@H](O)[C@@H]1O [UDP-GlcA]
[1]
  glucuronosyltransferase assay, RP-HPLC fluorescence and LC-ESI-MS of products: However, only UDP-GlcA was an active substrate donor
[2]
  glucuronosyltransferase assay, RP-HPLC with fluorescence detection: This result confirms that AtGlcAT14B and AtGlcAT14E have GlcAT activity
AT4G27480 (248)
  glucuronosyltransferase assay, RP-HPLC with fluorescence detection: AT4G27480 show the GlcAT activity using the three different acceptors
